# Values of other authors in patent US20210401766A1, “Method of Using Cannabinoids Encapsulated in Phospholipid Carriers for Transmucosal and Transdermal Administration” (NuVessl, Inc., priority 2018, published 2021).
smiles,measurement,setting,value
"C=C(C)[C@@H]1CCC(C)=C[C@H]1c1c(O)cc(CCCCC)cc1O [CBD, Cannabidiol]",Duration of effects,oral administration,5 to 8 h
same,Bioavailability,oromucosal,approximately 35%
same,Bioavailability (average),smoking and vaporizing,around 40%
same,Bioavailability (range),smoking and vaporizing,2%-56%
same,Length of time CBD remains in the body,smoking and vaporizing,around 3 hours
